Reference: US20060189566A1, “Muscle building agent and preventive or remedy for muscle weakening” (priority 2003, published 2006)

What was measured:
soleus muscle [1] = assay: Wet weight of soleus muscle (absolute, atrophy rate, per body weight) in cast-immobilized rats; format: in vivo, rat; settings: mean ± SD; for Wet Weight of Soleus Muscle, Immobilized / Wet Weight of Soleus Muscle per Body Weight, Immobilized: immobilized leg; for Wet Weight of Soleus Muscle, Immobilized / Wet Weight of Soleus Muscle, Non-immobilized: 1 wt % CDP-choline feed; for Wet Weight of Soleus Muscle, Non-immobilized / Wet Weight of Soleus Muscle per Body Weight, Non-immobilized: non-immobilized leg
Protocol: (§1) As test animals, 13 female 9-week-old rats of Fischer 344 strain (purchased from SLC Inc.) were used. The rats were preliminarily bred for 3 days in a chamber in which the temperature was adjusted to 22° C. under a bright-dark cycle where 07:00 to 19:00 was the bright period, and access to water and feed was ad libitum. After the preliminary breeding, the rats were divided into two groups, and a control feed was given to a control group consisting of 7 rats while a feed comprising CDP-choline (manufactured by Kyowa Hakko Kogyo Co., Ltd.) having the composition shown in Table 1 (hereinafter referred to as a CDP-choline feed) was given to the other group consisting of 6 rats for one day. Then, the right hind limb of each rat was immobilized in plaster cast under anesthesia with pentobarbital, followed by further feeding for one week under the above conditions. Thereafter, the rats were subjected to analysis with regard to the items shown below. In the test, two muscles, i.e., plantar muscle and soleus muscle located at the lower hind limbs of a rat, were used. Soleus muscle is a representative slow skeletal muscle in lower limbs where 80 to 90% of total muscle fibers are slow muscle fibers, and plantar muscle is a typical fast skeletal muscle where about 95% of total muscle fibers are fast muscle fibers. The rat was killed after body weight measurement, and the soleus muscle and plantar muscle of both the right and left lower hind limbs were quickly excised and washed with a physiological saline solution. After extraneous connective tissues, tendons, nerves, etc. were removed, the muscle wet weights of soleus muscle and plantar muscle were measured. The relative wet weight of muscle immobilized in a cast was determined for each rat based on the wet weight of muscle which was not immobilized in a cast, taken as 100, and the decrease in muscle weight was expressed as the atrophy rate. The wet weight of muscle relative to body weight was calculated by measuring the wet weight of both right and left soleus muscles and plantar muscles and dividing the obtained value by body weight. The wet weight of muscle per body weight excludes the influence of the difference in body weight on each muscle wet weight and reflects the muscle amount per body weight. The wet weight of soleus muscle per body weight is shown in Table 7, and the wet weight of plantar muscle per body weight is shown in Table 8.

plantar muscle = assay: Wet weight of plantar muscle (absolute, atrophy rate, per body weight) in cast-immobilized rats; format: in vivo, rat; settings: mean ± SD; for Atrophy Rate (plantar muscle): decrease of immobilized muscle wet weight relative to non-immobilized taken as 100; for Wet Weight of Plantar Muscle, Immobilized / Wet Weight of Plantar Muscle per Body Weight, Immobilized: immobilized leg
Protocol: as §1

soleus muscle [2] = assay: Protein content of soleus muscle in cast-immobilized rats; format: in vivo, rat; settings: mean ± SD; for Protein Content of Soleus Muscle, Non-immobilized: non-immobilized leg
Protocol: As test animals, 13 female 9-week-old rats of Fischer 344 strain (purchased from SLC Inc.) were used. The rats were preliminarily bred for 3 days in a chamber in which the temperature was adjusted to 22° C. under a bright-dark cycle where 07:00 to 19:00 was the bright period, and access to water and feed was ad libitum. After the preliminary breeding, the rats were divided into two groups, and a control feed was given to a control group consisting of 7 rats while a feed comprising CDP-choline (manufactured by Kyowa Hakko Kogyo Co., Ltd.) having the composition shown in Table 1 (hereinafter referred to as a CDP-choline feed) was given to the other group consisting of 6 rats for one day. Then, the right hind limb of each rat was immobilized in plaster cast under anesthesia with pentobarbital, followed by further feeding for one week under the above conditions. Thereafter, the rats were subjected to analysis with regard to the items shown below. Soleus muscle was finely cut in a 1.15% potassium chloride solution and a homogenate thereof was prepared using a glass homogenizer. After the homogenate was appropriately diluted, its protein content was measured using the Protein Assay Kit of Biorad. A calibration curve was prepared using a 2 mg/ml BSA solution.

soleus muscle [3] = assay: Degradation rate of muscle plasma protein of soleus muscle (tyrosine release); format: in vivo, rat; settings: 2 hours incubation in Krebs-Henseleit bicarbonate buffer, mean ± SD; for Decomposition Rate of Muscle Plasma Protein of Soleus Muscle, Tyrosine, Non-immobilized: non-immobilized leg
Protocol: As test animals, 13 female 9-week-old rats of Fischer 344 strain (purchased from SLC Inc.) were used. The rats were preliminarily bred for 3 days in a chamber in which the temperature was adjusted to 22° C. under a bright-dark cycle where 07:00 to 19:00 was the bright period, and access to water and feed was ad libitum. After the preliminary breeding, the rats were divided into two groups, and a control feed was given to a control group consisting of 7 rats while a feed comprising CDP-choline (manufactured by Kyowa Hakko Kogyo Co., Ltd.) having the composition shown in Table 1 (hereinafter referred to as a CDP-choline feed) was given to the other group consisting of 6 rats for one day. Then, the right hind limb of each rat was immobilized in plaster cast under anesthesia with pentobarbital, followed by further feeding for one week under the above conditions. Thereafter, the rats were subjected to analysis with regard to the items shown below. Weighed soleus muscle was pre-incubated for 30 minutes in a Krebs-Henseleit bicarbonate buffer under aeration with […]. The muscle was then transferred to fresh Krebs-Henseleit bicarbonate buffer, and incubated for 2 hours. The concentration of tyrosine in the buffer was measured, whereby the degradation rate of muscle plasma protein was calculated. The concentration of tyrosine was measured by the fluorescence method of […], et al. using 1-nitroso-2-naphthol [J. Lab. Clin. Med., 50, 733 (1957)] (excitation wavelength: 435 nm; fluorescence wavelength: 545 nm). In order to prepare a calibration curve, a 5 nmol/ml tyrosine solution prepared as a standard solution was appropriately diluted and the relationship between its concentration and fluorescence intensity was plotted. By using the calibration curve thus prepared, the concentration of tyrosine in the buffer tested was determined from its fluorescence intensity.

C2C12 cells = assay: Increase of intracellular protein in differentiated C2C12 cells (Methylene Blue method); format: cell-based, mouse; settings: 3 days; for Increase Rate of Intracellular Protein: control d0 = 0, control d3 = 100
Protocol: C2C12 cells were purchased from Dainippon Pharmaceutical Co., Ltd. Culturing was carried out according to the method of Craig, et al. [Methods in Cell Biology, 52, 85 (1998)]. A medium for growth was prepared by addition of 50 ml of FBS (manufactured by Gibco; Cat. No. 10099-141) and 5 ml of penicillin-streptomycin (manufactured by Gibco; Cat. No. 15140-122) to 500 ml of D-MEM medium (manufactured by Gibco; Cat. No. 11885-084). A medium for differentiation was prepared by addition of 10 ml of inactivated horse serum (manufactured by Gibco; Cat. No. 26050-088) and 5 ml of penicillin-streptomycin to 500 ml of the D-MEM medium. C2C12 cells were seeded and cultured in a 75-cm^2 flask containing 15 ml of the medium for growth and were subcultured before reaching confluence. Culturing was carried out in a CO2 incubator under 5% CO2 concentration and 100% relative humidity. The cell suspension diluted to 5×10^4 cells/ml with the medium for growth was added to each well of type I collagen-coated 96-well plate (Iwaki; Cat. No. 4860-010) in an amount of 100 μl. After confirming that the growth was uniform, the medium was replaced by the differentiation medium. Myogenesis was confirmed under a microscope after culturing for 3 days, and then a CDP-choline-containing PBS (−) solution was added to the medium until its final concentration reached 1 mg/ml or 0.1 mg/ml, followed by further culturing. […] The amount of intracellular protein was measured according to the method of Oliver, et al. [Journal of Cell Science, 92, 513 (1989)]. […] After the solution was appropriately diluted, the absorption at 650 nm was measured using a microplate reader. To determine the rate of increase of intracellular protein, the value of the test group (group to which CDP-choline was added) after culturing for 3 days was calculated based on the value before addition of CDP-choline (do) taken as 0 and the concentration of intracellular protein in the control group (group to which no CDP-choline was added) after culturing for 3 days (d3) taken as 100.

C[N+](C)(C)CCOP(=O)(O)OP(=O)([O-])OC[C@H]1O[C@@H](n2ccc(N)nc2=O)[C@H](O)[C@@H]1O [CDP-Choline, Cytidine diphosphate choline]
Atrophy Rate (soleus muscle) (soleus muscle [1]; decrease of immobilized muscle wet weight relative to non-immobilized taken as 100): 21.0 ± 6.5%
Wet Weight of Soleus Muscle, Immobilized (soleus muscle [1]): 61.0 ± 5.2 mg
Wet Weight of Soleus Muscle, Immobilized (soleus muscle [1]; listed as CDP-choline): no difference in wet weight of muscle
Wet Weight of Soleus Muscle per Body Weight, Immobilized (soleus muscle [1]): 0.428 ± 0.027 mg/g body weight
Wet Weight of Soleus Muscle per Body Weight, Immobilized (soleus muscle [1]; listed as CDP-choline): no difference
Wet Weight of Soleus Muscle, Non-immobilized (soleus muscle [1]): 77.2 ± 3.9 mg
Wet Weight of Soleus Muscle, Non-immobilized (soleus muscle [1]; listed as CDP-choline): no difference in wet weight of muscle
Wet Weight of Soleus Muscle per Body Weight, Non-immobilized (soleus muscle [1]): 0.542 ± 0.030 mg/g body weight
Wet Weight of Soleus Muscle per Body Weight, Non-immobilized (soleus muscle [1]; listed as CDP-choline): no difference
Atrophy Rate (plantar muscle) (plantar muscle): 15.8 ± 5.8%
Atrophy Rate (plantar muscle) (plantar muscle; listed as CDP-choline): significantly lower
Wet Weight of Plantar Muscle, Immobilized (plantar muscle; 1 wt % CDP-choline feed): 104.0 ± 2.7 mg
Wet Weight of Plantar Muscle, Immobilized (plantar muscle; 1 wt % CDP-choline feed, listed as CDP-choline): significantly higher than the control group
Wet Weight of Plantar Muscle per Body Weight, Immobilized (plantar muscle): 0.731 ± 0.029 mg/g body weight
Wet Weight of Plantar Muscle per Body Weight, Immobilized (plantar muscle; listed as CDP-choline): significantly higher than the control group
Wet Weight of Plantar Muscle, Non-immobilized (plantar muscle; non-immobilized leg, 1 wt % CDP-choline feed): 123.8 ± 7.4 mg
Wet Weight of Plantar Muscle per Body Weight, Non-immobilized (plantar muscle; non-immobilized leg): 0.870 ± 0.052 mg/g body weight
Protein Content of Soleus Muscle, Immobilized (soleus muscle [2]; immobilized leg): 128.4 ± 10.0 mg protein/g tissue
Protein Content of Soleus Muscle, Non-immobilized (soleus muscle [2]): 173.2 ± 15.0 mg protein/g tissue
Protein Content of Soleus Muscle, Non-immobilized (soleus muscle [2]; listed as CDP-choline): significantly higher than the control group
Decomposition Rate of Muscle Plasma Protein of Soleus Muscle, Tyrosine, Immobilized (soleus muscle [3]; immobilized leg): 322.1 ± 98.0 nmol/g tissue/2 hours
Decomposition Rate of Muscle Plasma Protein of Soleus Muscle, Tyrosine, Non-immobilized (soleus muscle [3]): 135.5 ± 50.1 nmol/g tissue/2 hours
Decomposition Rate of Muscle Plasma Protein of Soleus Muscle, Tyrosine, Non-immobilized (soleus muscle [3]; listed as CDP-choline): significantly lower than the control group
Increase Rate of Intracellular Protein (C2C12 cells; CDP-choline 0.1 mg/ml): 134
Increase Rate of Intracellular Protein (C2C12 cells; CDP-choline 1 mg/ml): 141
Amount of intracellular protein in C2C12 cells (C2C12 cells; CDP-choline 0.1 and 1 mg/ml): increased in a CDP-choline concentration dependent manner
